Assay results taken from patent US6500858B2, “Taxoid anti-tumor agents and pharmaceutical compositions thereof” (The Research Foundation of the state University of New York, priority 1994, dated 2002).
Entries after “also recorded” stand apart in the source; their conditions may differ. Like-named read-outs stand apart in the source and are kept apart here.

What was measured:
HT-29 (colon carcinoma) = test: tumor cell growth inhibition (SRB, 72 h drug exposure); type: cell-based, human; details: for IC50: 72 h drug exposure
Procedure: (§1) Lower numbers indicate higher potency. […] The data represent the mean values of at least three separate experiments. Lower numbers indicate greater activity.
(§2) Assessment of cell growth inhibition was determined according to the methods of Skehan et al., J. Nat. Cancer Inst. […] Briefly, cells were plated between 400 and 1200 cells/well in 96 well plates and incubated at 37° C. for 15-18 h prior to drug addition to allow attachment of cells. […] After a 72 h incubation, […] of ice-cold 50% TCA was added to each well and incubated for 1 h at 4° C. Plates were then washed 5 times with tap water to remove TCA, low-molecular-weight metabolites and serum proteins. Sulforhodamine B (SRB) (0.4%, […]) was added to each well. Following a 5 min incubation at room temperature, plates were rinsed 5 times with 0.1% acetic acid and air dried. […] Optical density was measured at 570 nm.

A121 (ovarian carcinoma) = test: as above; type: cell-based, human; details: for IC50: 72 h drug exposure
Procedure: as §1, §2

[1] = system: A549 (non-small cell lung carcinoma); test: as above; type: cell-based, human; details: for IC50: 72 h drug exposure, read-out: A549 (NSCLC) IC50
Procedure: as §1, §2

MCF7 (mammary carcinoma) = test: as above; type: cell-based, human; details: for IC50: 72 h drug exposure
Procedure: as §1, §2

MCF-7 ADRr = test: growth inhibition by cell counts, 72 h; type: cell-based, human; details: Homo sapiens, MCF7, 72 h; read-out: MCF-7 ADRr IC50
Procedure: (§3) Cells were plated in 6-well flat bottom plates (Falcon, Lincoln Park, N.J.) at a concentration of 10^5 cells ml in complete medium. After 24 h, the medium was replaced with media containing the test substances. Control cells were treated with vehicle alone. Cells were then washed twice and cultures maintained up to 72 h in complete medium (without removing the test substances). At this time point quadruplicate counts of triplicate cultures were performed. To calculate the growth inhibition effect, three independent experiments were performed for each test substance/cell line. The IC50 values were then calculated by fitting the concentration-effect curve data obtained in the three experiments with the sigmoid-Emax model using nonlinear regression, weighted by the reciprocal of the square of the predicted effect according to the method of Motulsky, H. J. and Ransnas, L. A., FASEB J. 1:365-74 (1987).

NCI-H23 = test: growth inhibition by cell counts, 72 h; type: cell-based, human; details: Homo sapiens, NCI-H23, 72 h; read-out: NCI-H23 IC50
Procedure: as §3

MCF-7 wt = test: growth inhibition by cell counts, 72 h; type: cell-based, human; details: Homo sapiens, MCF7, 72 h; read-out: MCF-7 wt IC50
Procedure: as §3

A2780 = test: growth inhibition by cell counts, 72 h; type: cell-based, human; details: Homo sapiens, A2780, 72 h; read-out: A2780 IC50
Procedure: as §3

DU-145 = test: growth inhibition by cell counts, 72 h; type: cell-based, human; details: Homo sapiens, DU-145, 72 h; read-out: DU-145 IC50
Procedure: as §3

WiDr = test: growth inhibition by cell counts, 72 h; type: cell-based, human; details: Homo sapiens, WiDr, read-out: WiDr IC50
Procedure: as §3

[2] = system: LCC6-WT: human breast carcinoma; test: cytotoxicity assay of second generation taxoids; type: cell-based; details: 72 h drug exposure, read-out: LCC6-WT IC50
Procedure: A cytotoxicity assay of these new second generation taxoids was performed on human breast cancer cell lines, LCC6-WT and LCC-MDR, and selected taxoids were also assayed for their potency against MCF7 and MCF7-R (Skehan, P., et al., J. Nat. Cancer Inst. 1990, 82, 1107-1112).

[3] = system: LCC6-MDR: MDR1 transduced line; test: cytotoxicity assay of second generation taxoids; type: cell-based, human; details: for activity against drug-resistant vs drug-sensitive cell lines, in words: LCC6 and MCF7 pairs
[4] = system: MCF7-R (mammary carcinoma cells 180-fold resistant to adriamycin); test: tumor cell growth inhibition (SRB, 72 h drug exposure); type: cell-based, human; details: for IC50: 72 h drug exposure
Procedure: as §1, §2

[5] = Table 1, read-out: MCF7 (breast) IC50

Compound: CC(=O)O[C@@]12CO[C@@H]1C[C@H](O)[C@@]1(C)C(=O)[C@H](O)C3=C(C)[C@@H](OC(=O)[C@H](O)[C@H](CC(C)(C)C)NC(=O)OC(C)(C)C)C[C@@](O)([C@@H](OC(=O)c4ccccc4)[C@H]21)C3(C)C [3′-dephenyl-3′-neopentyldocetaxel]
- cytotoxicity in words (HT-29 (colon carcinoma); HT-29 human colon): virtually not cytotoxic
- cytotoxicity in words (A121 (ovarian carcinoma); A121 human ovarian): virtually not cytotoxic
- cytotoxicity in words ([1]; A549 human non-small cell lung): virtually not cytotoxic
- cytotoxicity in words (MCF7 (mammary carcinoma); MCF7 human breast): virtually not cytotoxic

Compound: CC(=O)O[C@@]12CO[C@@H]1C[C@H](O)[C@@]1(C)C(=O)[C@H](O)C3=C(C)[C@@H](OC(=O)[C@H](O)[C@@H](NC(=O)OC(C)(C)C)c4ccccc4)C[C@@](O)([C@@H](OC(=O)c4ccccc4)[C@H]21)C3(C)C [Docetaxel, docetaxel, reference compound]
- IC50 (MCF-7 ADRr): 970 nM
- IC50 (NCI-H23): 3 nM
- IC50 (MCF-7 wt): 3.6 nM
- IC50 (A2780): 4.95 nM
- IC50 (DU-145): 0.8 nM
- IC50 (WiDr): 2.3 nM
- IC50 ([2]; Homo sapiens): 1 nM
- IC50 (HT-29 (colon carcinoma); Homo sapiens, HT-29): 1.2 nM
- IC50 (A121 (ovarian carcinoma); Homo sapiens, A121): 1.2 nM
- IC50 ([1]; Homo sapiens, A549): 1 nM
- IC50 (MCF7 (mammary carcinoma); Homo sapiens, MCF7, Table 1, read-out: MCF7 (breast) IC50): 1 nM
- IC50 (MCF7 (mammary carcinoma); Homo sapiens, MCF7, Table 3, read-out: MCF7 IC50): 1 nM
- IC50 ([3]; Homo sapiens, LCC6MDR, 72 h drug exposure, read-out: LCC6-MDR IC50): 120 nM

Compound: CCC(=O)OC1C(=O)C2(C)C(O)CC3OCC3(OC(C)=O)C2C(OC(=O)c2cccc(OC)c2)C2(O)CC(OC(=O)C(O)C(C=C(C)C)NC(=O)OC(C)(C)C)C(C)=C1C2(C)C (stereo not shown) [Taxoid 7f, 3′-Dephenyl-3′-(2-methylprop-1-enyl)-2-debenzoyl-2-(3-methoxybenzoyl)-10-propanoyldocetaxel]
- IC50 [2]: 1 nM
- IC50 ([4]; Table 3): 0.33 nM
- IC50 (MCF7 (mammary carcinoma); Table 3, read-out: MCF7 IC50): 0.36 nM
- activity against drug-resistant vs drug-sensitive cell lines, in words [3]: slightly better activity against the drug-resistant cell lines; also recorded: virtually no difference in activity

Compound: COc1cccc(C(=O)OC2C3C4(OC(C)=O)COC4CC(O)C3(C)C(=O)C(OC(C)=O)C3=C(C)C(OC(=O)C(O)C(C=C(C)C)NC(=O)OC(C)(C)C)CC2(O)C3(C)C)c1 (stereo not shown) [Taxoid 7l, 3′-Dephenyl-3′-(2-methylprop-1-enyl)-2-debenzoyl-2-(3-methoxybenzoyl)-10-acetyldocetaxel]
- IC50 [2]: 0.6 nM
- IC50 ([4]; Table 3): 2.3 nM
- IC50 (MCF7 (mammary carcinoma); Table 3, read-out: MCF7 IC50): 0.8 nM

Compound: CCC(=O)OC1C(=O)C2(C)C(O)CC3OCC3(OC(C)=O)C2C(OC(=O)c2cccc(N=[N+]=[N-])c2)C2(O)CC(OC(=O)C(O)C(CC(C)C)NC(=O)OC(C)(C)C)C(C)=C1C2(C)C (stereo not shown) [Taxoid 7n, 3′-Dephenyl-3′-(2-methylpropyl)-2-debenzoyl-2-(3-azidobenzoyl)-10-propanoyldocetaxel]
- IC50 [2]: 1.1 nM
- IC50 ([4]; Table 3): 2.1 nM
- IC50 (MCF7 (mammary carcinoma); Table 3, read-out: MCF7 IC50): 1 nM

Compound: CCC(=O)OC1C(=O)C2(C)C(O)CC3OCC3(OC(C)=O)C2C(OC(=O)c2cccc(N=[N+]=[N-])c2)C2(O)CC(OC(=O)C(O)C(C=C(C)C)NC(=O)OC(C)(C)C)C(C)=C1C2(C)C (stereo not shown) [Taxoid 7o, 3′-Dephenyl-3′-(2-methylprop-1-enyl)-2-debenzoyl-2-(3-azidobenzoyl)-10-propanoyldocetaxel]
- IC50 [2]: 0.9 nM
- IC50 ([4]; Table 3): 1.1 nM
- IC50 (MCF7 (mammary carcinoma); Table 3, read-out: MCF7 IC50): 0.9 nM
- activity against drug-resistant vs drug-sensitive cell lines, in words [3]: virtually no difference in activity

Compound: CC(=O)OC1C(=O)C2(C)C(O)CC3OCC3(OC(C)=O)C2C(OC(=O)c2cccc(C)c2)C2(O)CC(OC(=O)C(O)C(C=C(C)C)NC(=O)OC(C)(C)C)C(C)=C1C2(C)C (stereo not shown) [Taxoid 7q, 3′-Dephenyl-3′-(2-methylprop-1-enyl)-2-debenzoyl-2-(3-methylbenzoyl)-10-acetyldocetaxel]
- IC50 [2]: 1.5 nM
- IC50 ([4]; Table 3): 5 nM
- IC50 (MCF7 (mammary carcinoma); Table 3, read-out: MCF7 IC50): 0.8 nM

Compound: CC=CC(NC(=O)OC(C)(C)C)C(O)C(=O)OC1CC2(O)C(OC(=O)c3ccccc3)C3C4(OC(C)=O)COC4CC(O)C3(C)C(=O)C(OC(C)=O)C(=C1C)C2(C)C (stereo not shown) [Taxoid Ia, 3′-dephenyl-3′-(1-propenyl)-10-acetyldocetaxel]
- IC50 (HT-29 (colon carcinoma)): 0.76 nM
- IC50 (A121 (ovarian carcinoma)): 0.9 nM
- IC50 [1]: 0.54 nM
- IC50 ([4]; Table 1): 14 nM
- times better activity than docetaxel ([4]; MCF7-R): 17 times
- times better activity than paclitaxel ([4]; MCF7-R): 21 times
- IC50 (MCF7 (mammary carcinoma); [5]): 0.51 nM

Compound: CC(=O)OC1C(=O)C2(C)C(O)CC3OCC3(OC(C)=O)C2C(OC(=O)c2ccccc2)C2(O)CC(OC(=O)C(O)C(NC(=O)OC(C)(C)C)C(F)(F)F)C(C)=C1C2(C)C (stereo not shown) [Taxoid Ig, 3′-Dephenyl-3 ′-trifluoromethyl-10-acetyldocetaxel]
- IC50 (HT-29 (colon carcinoma)): 0.4 nM
- IC50 (A121 (ovarian carcinoma)): 0.37 nM
- IC50 [1]: 0.25 nM
- IC50 ([4]; Table 1): 17 nM
- IC50 (MCF7 (mammary carcinoma); [5]): 0.25 nM
